Values joined by “and” are separate entries in the source; they are usually repeats but may differ in a detail not shown here. Equal entries are not always repeated. “Also recorded” adds a separate entry of the source.
Experiments:
HRPC patients [1] = conditions: phase III study; cited from earlier work
peptide-specific IgG [2] = test: ELISA of serum anti-peptide IgG, Example 2; format: in vivo, human; set-up: key: −: absent; +: present, low titer; ++: present, high titer; conditions: serum of the individual patient; for Anti-peptide IgG, 6th: after 6th vaccination; for Anti-peptide IgG, Pre: pre-vaccination
Protocol: Peptide-specific CTL precursors in PBMCs were detected using a previously reported culture method, while an ELISA was used to detect the serum IgG levels specific for the peptides administrated, as reported previously. In addition, a new monitoring method was conducted to carefully measure the estramustine-induced immunosuppression. Namely, PBMCs were harvested every 2 weeks and were cultured (10^4 cells/well) for 2 days in triplicate assays with […] of phytohemagglutinin (PHA), 10 ng/ml of Epstein-Bar virus (EBV)-derived peptide with HLA-A24 or -A2 binding motif, and 10 ng/ml of two different peptides under vaccination. After 2 days in culture, the amounts of IFN-γ in cell free supernatants were measured in triplicate assays, and viable cell numbers were also counted. To avoid biases in each assay, all the PBMCs were once cryopreserved and the four different PBMCs (two from healthy donors, one from patients PBMCs harvested 2 weeks before the latest vaccination, and one from the latest vaccination) were thawed at the same time in the morning of the experiment. The PBMCs from healthy donors were from the same donors throughout the series of immunological monitoring. Responses (IFN-γ production) to PHA, EBV-peptide, and the vaccinated peptides were considered to be mediated by resting T cells, memory T cells, and activated T cells, respectively.
Except for the following points, substantially the same approach was employed as Example 1.

peptide-specific IgG [3] = test: ELISA of serum IgG specific for the administered peptides, Example 1; format: in vivo, human; set-up: key: −: absent; +: present, low titer; ++: present, high titer; conditions: serum of the individual case; for Anti-peptide IgG during the combination therapy, 6th: after 6th vaccination; for Anti-peptide IgG during the combination therapy, 12th: after 12th vaccination; for Anti-peptide IgG during the combination therapy, 18th: after 18th vaccination; for Anti-peptide IgG during the combination therapy, Pre: before combination therapy
[4] = system: peptide-specific CTL precursors in PBMCs; test: Peptide-specific CTL precursor assay (IFN-γ production), Example 2; format: cell-based, human; conditions: for Cellular response to peptide, 6th (mean specific IFN-γ production): post(6th)-vaccination PBMCs of the individual patient, * p ≦ 0.05, ** p ≦ 0.10 increased versus pre; for Cellular response to peptide, Pre (mean specific IFN-γ production): pre-vaccination PBMCs of the individual patient, response to HIV peptide subtracted
Protocol: Before the first vaccination and 7 days after every 6th vaccination, 30 ml of peripheral blood was obtained, and PBMCs were isolated by means of Ficoll-Conray density gradient centrifugation. Peptide-specific CTL precursors in PBMCs were detected using a previously reported culture method [24]. Briefly, PBMCs (1×10^5 cells/well) were incubated with 10 μM of each peptide in U-bottom-type 96-well microculture plates (Nunc, Roskilde, Denmark) in 200 μl of culture medium. The culture medium contained 45% RPMI-1640 medium, 45% AIM-V™ medium (Invitrogen Corp., Carlsbad, Calif.), 10% FCS, 100 U/ml of interleukin-2 (IL-2) and 0.1 mM MEM nonessential amino acid solution (Invitrogen Corp.). Half of the medium was removed and replaced with the new medium containing a corresponding peptide (20 μM) every 3 days for up to 12 days. […] The target cells (C1R-A2402 or T2, 1×10^4/well) were pulsed with each peptide (10 μM) for 2 hr, and then effector cells (1×10^5/well) were added to each well with the final volume of 200 μl. After incubation for 18 hr, the supernatants (100 μl) were collected, and the amounts of IFN-γ were measured using an enzyme-linked immuno-sorbent assay (ELISA) (limit of sensitivity: 10 pg/ml). All experiments were performed in the four different wells with duplicate assays.
All patients were vaccinated with up to 4 peptides selected from the 16 candidates by pre-vaccination measurements.

[5] = system: peptide-specific CTL precursors in PBMCs; test: Peptide-specific CTL precursor assay (IFN-γ production of peptide-stimulated PBMCs), Example 1; format: cell-based, human; set-up: key to Cellular response to peptide during the combination therapy, 12th / Cellular response to peptide during the combination therapy, 6th / Cellular response to peptide during the combination therapy, Pre: Ar: p* ≦ 0.1 and 500 ≦ net**; A: p ≦ 0.05 and 50 ≦ net; B: p ≦ 0.05 and 25 ≦ net < 50; C: 0.05 < p < 0.1 and 50 ≦ net; AAAA: all four wells of quadruplicate assay were positive; AAA: three wells of quadruplicate assay were positive; AA: two wells of quadruplicate assay were positive; conditions: PBMCs of the individual case; for Cellular response to peptide during the combination therapy, 6th: after 6th vaccination; for Cellular response to peptide during the combination therapy, Pre: before combination therapy, grade of each positive well of quadruplicate IFN-γ assay; for Cellular response to peptide during the combination therapy, 12th: after 12th vaccination; for Cellular response to peptide during the combination therapy, 18th: after 18th vaccination;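 for all read-outs here: PBMCs cultured with each peptide at 10 µM, restimulated at 20 µM every 3 days up to 12 days, then 18 hr with peptide-pulsed target cells, IFN-γ by ELISA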
Protocol: Before the first vaccination and 7 days after every 6th vaccination, 30 ml of peripheral blood was obtained, and PBMCs were isolated by means of Ficoll-Conray density gradient centrifugation. Peptide-specific CTL precursors in PBMCs were detected using a previously reported culture method [24]. Briefly, PBMCs (1×10^5 cells/well) were incubated with 10 μM of each peptide in U-bottom-type 96-well microculture plates (Nunc, Roskilde, Denmark) in 200 μl of culture medium. The culture medium contained 45% RPMI-1640 medium, 45% AIM-V™ medium (Invitrogen Corp., Carlsbad, Calif.), 10% FCS, 100 U/ml of interleukin-2 (IL-2) and 0.1 mM MEM nonessential amino acid solution (Invitrogen Corp.). Half of the medium was removed and replaced with the new medium containing a corresponding peptide (20 μM) every 3 days for up to 12 days. […] The target cells (C1R-A2402 or T2, 1×10^4/well) were pulsed with each peptide (10 μM) for 2 hr, and then effector cells (1×10^5/well) were added to each well with the final volume of 200 μl. After incubation for 18 hr, the supernatants (100 μl) were collected, and the amounts of IFN-γ were measured using an enzyme-linked immuno-sorbent assay (ELISA) (limit of sensitivity: 10 pg/ml). All experiments were performed in the four different wells with duplicate assays. […] Peptides were chosen based upon evaluation of all 4 wells by the order shown above.
Peptide-specific CTL precursors in PBMCs were detected using a previously reported culture method [24], while an ELISA was used to detect the serum IgG levels specific for the peptides administrated, as reported previously [13-15]. […] Namely, PBMCs were harvested every 2 weeks and were cultured (10^4 cells/well) for 2 days in triplicate assays with 10 μl M of phytohemagglutinin (PHA), 10 ng/ml of Epstein-Bar virus (EBV)-derived peptide with HLA-A24 or -A2 binding motif, and 10 ng/ml of two different peptides under vaccination. After 2 days in culture, the amounts of IFN-γ in cell free supernatants were measured in triplicate assays, and viable cell numbers were also counted. To avoid biases in each assay, all the PBMCs were once cryopreserved and the four different PBMCs (two from healthy donors, one from patients PBMCs harvested 2 weeks before the latest vaccination, and one from the latest vaccination) were thawed at the same time in the morning of the experiment. The PBMCs from healthy donors were from the same donors throughout the series of immunological monitoring. Responses (IFN-γ production) to PHA, EBV-peptide, and the vaccinated peptides were considered to be mediated by resting T cells, memory T cells, and activated T cells, respectively.

HRPC patients [6] = test: Combination therapy by dose of estramustine phosphate, Example 3; format: in vivo, human
PBMCs [7] = test: Immunosuppression during combination therapy, Example 2; conditions: half dose (280 mg/day) with the peptide
PBMCs [8] = test: Monitoring of estramustine-induced immunosuppression (IFN-γ production of PBMCs to PHA, EBV-peptide and vaccinated peptides), Example 1
[9] = estramustine 140 mg/day combined with peptide vaccination, 4 cases
[10] = estramustine 280 mg/day combined with peptide vaccination, 32 cases
[11] = estramustine 560 mg/day combined with peptide vaccination, 5 cases

Compound | Anti-peptide IgG, 6th (peptide-specific IgG [2]) | Anti-peptide IgG, Pre (peptide-specific IgG [2]) | Anti-peptide IgG during the combination therapy, 6th (peptide-specific IgG [3]) | Anti-peptide IgG during the combination therapy, 12th (peptide-specific IgG [3]) | Anti-peptide IgG during the combination therapy, 18th (peptide-specific IgG [3]) | Anti-peptide IgG during the combination therapy, Pre (peptide-specific IgG [3]) | Cellular response to peptide, 6th (mean specific IFN-γ production) [4] | Cellular response to peptide, Pre (mean specific IFN-γ production) [4] | Cellular response to peptide during the combination therapy, 6th [5] | Cellular response to peptide during the combination therapy, Pre [5] | Cellular response to peptide during the combination therapy, 12th [5] | Cellular response to peptide during the combination therapy, 18th [5] | other results
CC[C@]1(O)C[C@@H]2CN(CCc3c([nH]c4ccccc34)[C@@](C(=O)OC)(c3cc4c(cc3OC)N(C)[C@H]3[C@@](O)(C(=O)OC)[C@H](OC(C)=O)[C@]5(CC)C=CCN6CC[C@]43[C@@H]65)C2)C1 [vinblastine] |  |  |  |  |  |  |  |  |  |  |  |  | Rate of neutropenia, grade 2 (HRPC patients [1]): 27%; Rate of neutropenia, grade 3 (HRPC patients [1]): 18%; Rate of neutropenia, grade 4 (HRPC patients [1]): 9%
HYTNASDGL [lck208-216] | − | − (2×) and + | − | − | − and + | − | 0 pg/mL and 676 pg/mL and 58.8 pg/mL | 34.8 pg/mL and 5.8 pg/mL and 26.3 pg/mL | AA | A (p ≦ 0.05 and 50 ≦ net) |  |  | 
VYDYNCHVDL [SART 3109-118] | + (8×) and ++ and − | + (11×) and − | ++ and + and − | ++ and − | ++ and + | + and − (2×) | 25 pg/ml and 27.3 pg/ml and 534** pg/ml and 170.8 pg/ml and 750** pg/ml and 610.8* pg/ml and 250 pg/ml and 496 pg/ml and 22.3 pg/ml and 0 pg/ml and 681.8 pg/ml | 14.3 pg/ml and 26 pg/ml and 12.3 pg/ml and 5.3 pg/ml and 5.5 pg/ml and 0 pg/ml (2×) and 625 pg/ml and 35.8 pg/ml and 30.3 pg/ml and 25.3 pg/ml and 2.8 pg/ml | ArA and ArArArA | ArAA and ArArArA | B (p ≦ 0.05 and 25 ≦ net < 50); also recorded: ArArArA | ArArAA | 
CYASGWGSI [PSA152] | − (4×) and + | − (3×) and + (2×) |  |  |  |  | 34.8 pg/ml and 0 pg/ml (2×) and 18.8 pg/ml and 15.5 pg/ml | 34.5 pg/mL and 39.5 pg/mL and 250 pg/mL and 49.3 pg/mL and 168.8 pg/mL |  |  |  |  | 
AYIDFEMKI [SART 3315-323] | + (2×) and − (3×) | − (4×) and + (2×) | − and + | − | − | − and + | 39.3 pg/ml and 12.8 pg/ml and 154** pg/ml and 26.5 pg/ml and 255 pg/ml | 47.8 pg/mL and 4 pg/mL and 0 pg/mL and 112.3 pg/mL and 44.8 pg/mL and 15 pg/mL | A (p ≦ 0.05 and 50 ≦ net) |  | Ar (p* ≦ 0.1 and 500 ≦ net**) | ArArArB | 
DYLRSVLEDF [lck488-497] | − | + (3×) and − | − (3×) and + | − (2×) and + | + (2×) and − | − | 99 pg/mL and 26.8 pg/mL and 26.5 pg/mL and 19.8 pg/mL | 29.8 pg/mL and 36.5 pg/mL and 31.8 pg/mL and 30.5 pg/mL | ABB | C (0.05 < p < 0.1 and 50 ≦ net) and B (p ≦ 0.05 and 25 ≦ net < 50) and ArAB |  |  | 
AYDFLYNYL [SART 2161-169] |  | + | − | − | − | − |  | 0 pg/mL | Ar (p* ≦ 0.1 and 500 ≦ net**) | A (p ≦ 0.05 and 50 ≦ net) | B (p ≦ 0.05 and 25 ≦ net < 50) and AAC | ArA and ArArAA | 
DYSARWNEI [SART 293-101] | + and − (2×) | + (2×) and − | − | − | − | − | 376.8 pg/ml and 162.5 pg/ml and 228.5** pg/ml | 22.8 pg/mL and 125 pg/mL and 57.3 pg/mL |  | C (0.05 < p < 0.1 and 50 ≦ net) |  |  | 
C[C@]12CC[C@@H]3c4ccc(OC(=O)N(CCCl)CCCl)cc4CC[C@H]3[C@@H]1CC[C@@H]2OP(=O)(O)O [estramustine phosphate, Estramustine phosphate] |  |  |  |  |  |  |  |  |  |  |  |  | Clinical Response, number of PD (HRPC patients [6]; [9]): 3; Clinical Response, number of SD (HRPC patients [6]; [9]): 1; Response, Cellular Immunity (HRPC patients [6]; [9]): 3/4; Response, Humoral Immunity (HRPC patients [6]; [9]): 4/4; Clinical Response, number of PD (HRPC patients [6]; [10]): 12PD; Clinical Response, number of PR (HRPC patients [6]; [10]): 10PR,; Clinical Response, number of SD (HRPC patients [6]; [10]): 10SD,; Response, Cellular Immunity (HRPC patients [6]; [10]): 23/31; Response, Humoral Immunity (HRPC patients [6]; [10]): 27/32; Clinical Response, number of PD (HRPC patients [6]; [11]): 5PD; Response, Cellular Immunity (HRPC patients [6]; [11]): 0/3; Response, Humoral Immunity (HRPC patients [6]; [11]): 1/2; Immunosuppression (PBMCs [7]): no significant immunosuppression in most cases; Immune suppression (PBMCs [8]; full dose (560 mg/day) with peptide vaccination, cases 2 and 3, recovered on discontinuing): severe immune suppression; Immune suppression (PBMCs [8]; half/low dose (280 mg/day) with the peptide, 8 cases tested): no significant immune suppression
EYRGFTQDF [SART1 690] | + (2×) and − | + and − (2×) |  |  |  |  | 0 pg/mL and 81.8 pg/mL and 35 pg/mL | 0 pg/mL and 250 pg/mL and 449 pg/mL |  |  |  |  | 
